Assays:
NMPRTase = biological target: T1, NMPRTase (Homo sapiens, UniProt P43490); assay: NMPRTase coupled-enzyme spectrometric assay; format: biochemical; details: FIG. 5; Vmax=kcat([E]-[I])
T1 construct: Full-length human and murine NMPRTase (residues 1-491) was sub-cloned into the pET26b vector; made in house; host or cells: E. coli (pET26b vector)
Experimental: The catalytic activity of NMPRTase was determined using a coupled-enzyme spectrometric assay, following a published protocol (Revollo et al., 2004). Briefly, the NMN product of NMPRTase is converted to NAD^+ with the enzyme NMN/NAMN adenylyltransferase (NMNAT), and NAD^+ is then reduced to NADH by alcohol dehydrogenase (Sigma) using ethanol as the substrate. By monitoring the appearance of NADH at 340 nm, the activity of NMPRTase can be determined. […] The reaction buffer contains 50 mM Tris (pH 7.5), 0.4 mM PRPP, various concentrations of NM (or NA), 2.5 mM ATP, 12 mM MgCl2, 1.5% ethanol, 10 mM semicarbazide (to remove the acetaldehyde product of ethanol oxidation), 0.02% BSA, 10 mg/ml NMNAT, 30 mg/ml ADH, and 0.5 mM NMPRTase. The reactions are carried out at room temperature.

tumor cells = details: cited from earlier work
normal cells = details: cited from earlier work
NAPRTases = details: cited from earlier work
renal cell carcinoma = details: mouse renal cell carcinoma model; cited from earlier work

T1 sequence (P43490 whole entry, the tested form may be a part): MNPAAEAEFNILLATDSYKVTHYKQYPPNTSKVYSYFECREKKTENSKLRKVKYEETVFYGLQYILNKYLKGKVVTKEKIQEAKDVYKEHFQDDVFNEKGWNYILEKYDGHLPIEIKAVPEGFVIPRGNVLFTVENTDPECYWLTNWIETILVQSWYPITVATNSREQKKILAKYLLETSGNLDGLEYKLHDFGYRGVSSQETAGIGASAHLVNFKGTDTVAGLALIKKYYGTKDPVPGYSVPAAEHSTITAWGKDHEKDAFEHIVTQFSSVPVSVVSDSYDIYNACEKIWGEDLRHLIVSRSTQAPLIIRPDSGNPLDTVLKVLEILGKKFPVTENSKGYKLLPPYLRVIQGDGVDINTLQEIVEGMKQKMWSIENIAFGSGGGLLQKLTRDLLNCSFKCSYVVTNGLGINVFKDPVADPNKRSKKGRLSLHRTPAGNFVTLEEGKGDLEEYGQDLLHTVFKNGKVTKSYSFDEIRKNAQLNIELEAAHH

**Q.** Which results are given for `O=C(/C=C/c1cccnc1)NCCCCC1CCN(C(=O)c2ccccc2)CC1` [FK866, (E)-N-[4-(1-benzoylpiperidin-4-yl)butyl]-3-(pyridin-3-yl)acrylamide]?
**A.** relationship between FK866 concentration and Vmax (NMPRTase): linear relationship; apoptosis (tumor cells): induces apoptosis; intracellular NAD+ levels (tumor cells): depletion of intracellular NAD^+ levels; toxicity to normal cells (normal cells): little toxicity; inhibition of NAPRTases (NAPRTases): does not inhibit; anti-angiogenic effects (renal cell carcinoma): potent anti-angiogenic effects

From patent publication US20080020413A1, “CRYSTALLINE VISFATIN AND METHODS THEREFOR” (Columbia University, priority 2006, published 2008)
